Source: US20250270209A1 (INTERLINE THERAPEUTICS, INC., priority 2022, published 2025)

Assays:
[1] = target: LRRK2 wild type enzyme (Homo sapiens, UniProt Q5S007); experiment: Biochemical Assay: LRRK2 TR-FRET (LanthaScreen) kinase assay with LRRKtide substrate; details: LRRK2 Inhibition, Table 8
How it was run: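 TR-FRET detection (Tb-labelled phospho-LRRKtide antibody, EDTA stop, 30 min) followed a 120 min, 23 °C reaction of 3 nM wild-type human LRRK2 with LRRKtide (400 nM) and ATP (25 μM) in Tris pH 8.0. Compounds: 11-point 3-fold series from 10 μM, 15 min enzyme preincubation.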

[2] = target: T1, wild type LRRK2 overexpressed in recombinant HEK-293T cells (Homo sapiens, UniProt Q5S007); experiment: pS935 LRRK2 Cell Assay (HTRF, phospho-LRRK2 Ser935); format: cell-based; details: LRRK2 Inhibition, Table 8, 2 hours compound incubation
T1 construct: host or cells: HEK293T (transient transfection with pCMV-LRRK2 WT plasmid)
How it was run: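 Phospho-Ser935 LRRK2 measured by two-antibody HTRF (Eu-cryptate donor, d2 acceptor; 665/615 nm ratio) after overnight detection at 23° C. Before lysis, transiently LRRK2-transfected HEK-293T cells were exposed 2 h at 37° C to a 9-point, 3-fold series from 10 μM, with DMSO at 0.2%.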

LRRK2 wild type enzyme, sequence (Q5S007 whole entry): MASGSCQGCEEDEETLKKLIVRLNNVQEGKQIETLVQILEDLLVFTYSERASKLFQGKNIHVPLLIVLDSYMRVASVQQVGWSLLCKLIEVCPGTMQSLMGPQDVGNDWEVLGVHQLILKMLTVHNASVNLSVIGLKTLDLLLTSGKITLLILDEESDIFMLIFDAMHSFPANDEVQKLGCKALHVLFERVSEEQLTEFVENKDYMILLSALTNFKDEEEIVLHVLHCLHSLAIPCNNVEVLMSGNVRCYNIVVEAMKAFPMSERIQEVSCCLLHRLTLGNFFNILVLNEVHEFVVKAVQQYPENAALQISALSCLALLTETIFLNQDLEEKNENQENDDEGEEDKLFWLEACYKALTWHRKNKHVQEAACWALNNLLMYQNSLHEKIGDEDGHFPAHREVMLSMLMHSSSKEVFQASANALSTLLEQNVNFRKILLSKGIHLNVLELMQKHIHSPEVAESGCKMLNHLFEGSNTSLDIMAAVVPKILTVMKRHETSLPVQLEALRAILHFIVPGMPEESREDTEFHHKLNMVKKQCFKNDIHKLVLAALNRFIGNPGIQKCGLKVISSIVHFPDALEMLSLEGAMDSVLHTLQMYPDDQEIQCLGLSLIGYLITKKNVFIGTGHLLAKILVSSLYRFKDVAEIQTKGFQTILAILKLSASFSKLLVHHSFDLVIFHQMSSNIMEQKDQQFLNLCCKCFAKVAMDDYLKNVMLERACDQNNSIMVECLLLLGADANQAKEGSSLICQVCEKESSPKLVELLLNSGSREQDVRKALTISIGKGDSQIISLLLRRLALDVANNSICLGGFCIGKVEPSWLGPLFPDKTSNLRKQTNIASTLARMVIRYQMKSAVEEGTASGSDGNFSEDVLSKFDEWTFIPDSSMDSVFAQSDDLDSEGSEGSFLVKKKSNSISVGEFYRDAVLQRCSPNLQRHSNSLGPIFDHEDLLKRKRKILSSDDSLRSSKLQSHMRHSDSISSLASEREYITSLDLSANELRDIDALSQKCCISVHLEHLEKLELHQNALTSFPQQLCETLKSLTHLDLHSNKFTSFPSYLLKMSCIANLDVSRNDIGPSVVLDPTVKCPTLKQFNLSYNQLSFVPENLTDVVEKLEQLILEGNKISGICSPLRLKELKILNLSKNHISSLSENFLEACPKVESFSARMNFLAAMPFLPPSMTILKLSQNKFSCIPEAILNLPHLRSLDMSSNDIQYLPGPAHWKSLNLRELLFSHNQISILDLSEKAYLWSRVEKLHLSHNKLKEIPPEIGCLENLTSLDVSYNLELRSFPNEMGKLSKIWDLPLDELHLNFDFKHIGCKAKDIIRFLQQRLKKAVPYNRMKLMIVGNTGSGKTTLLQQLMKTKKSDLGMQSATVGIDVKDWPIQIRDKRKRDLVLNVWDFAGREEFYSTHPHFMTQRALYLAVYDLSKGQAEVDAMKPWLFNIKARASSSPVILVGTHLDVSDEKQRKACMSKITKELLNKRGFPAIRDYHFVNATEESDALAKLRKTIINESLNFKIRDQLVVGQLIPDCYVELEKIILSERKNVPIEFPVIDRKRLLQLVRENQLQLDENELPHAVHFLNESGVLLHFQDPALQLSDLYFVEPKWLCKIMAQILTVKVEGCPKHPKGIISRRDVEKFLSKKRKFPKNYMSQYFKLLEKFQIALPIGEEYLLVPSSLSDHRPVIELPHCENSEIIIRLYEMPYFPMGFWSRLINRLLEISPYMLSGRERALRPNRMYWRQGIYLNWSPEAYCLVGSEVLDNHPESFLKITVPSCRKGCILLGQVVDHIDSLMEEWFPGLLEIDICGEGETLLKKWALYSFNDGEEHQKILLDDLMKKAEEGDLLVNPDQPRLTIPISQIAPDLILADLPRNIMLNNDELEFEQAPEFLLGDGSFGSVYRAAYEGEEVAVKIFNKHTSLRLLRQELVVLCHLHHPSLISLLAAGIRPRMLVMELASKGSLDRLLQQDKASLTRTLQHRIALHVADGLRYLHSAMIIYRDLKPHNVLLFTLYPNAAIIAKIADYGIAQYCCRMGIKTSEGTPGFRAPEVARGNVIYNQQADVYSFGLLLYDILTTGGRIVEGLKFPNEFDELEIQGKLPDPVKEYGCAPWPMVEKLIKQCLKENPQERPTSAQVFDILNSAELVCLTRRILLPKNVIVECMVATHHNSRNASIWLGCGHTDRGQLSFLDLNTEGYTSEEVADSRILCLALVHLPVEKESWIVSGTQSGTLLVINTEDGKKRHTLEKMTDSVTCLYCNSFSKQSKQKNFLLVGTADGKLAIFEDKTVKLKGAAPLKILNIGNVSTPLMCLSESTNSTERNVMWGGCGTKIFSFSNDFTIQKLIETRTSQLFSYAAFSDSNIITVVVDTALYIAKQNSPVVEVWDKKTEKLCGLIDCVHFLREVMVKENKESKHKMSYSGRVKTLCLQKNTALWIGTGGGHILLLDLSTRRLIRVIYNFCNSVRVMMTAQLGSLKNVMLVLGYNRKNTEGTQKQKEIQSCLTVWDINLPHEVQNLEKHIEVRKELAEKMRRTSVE
T1 sequence (Q5S007 whole entry): as above

SMILES	IC50 [1] [nM]	IC50 [2] [nM]
Cc1ccc(NC(=O)Cc2nc3cnc4ccc(C#N)cc4c3n2[C@@H]2CCO[C@H](C)C2)cn1 [Compound 319, N-(6-methyl-3-pyridyl){3-[(2R,4R)-2-methyltetrahydro-2H-pyran-4-yl]-12-cyano-3,5,8-triazatricyclo[7.4.0.0^2,6]trideca-1(9),2(6),4,7,10,12-hexaen-4-yl}acetamide]	0.542	5.93
C[C@@H]1C[C@H](n2c(CC(=O)Nc3cccnc3)nc3cnc4ccc(C#N)cc4c32)CCO1 [Compound 320, N-3-pyridyl{3-[(2R,4R)-2-methyltetrahydro-2H-pyran-4-yl]-12-cyano-3,5,8-triazatricyclo[7.4.0.0^2,6]trideca-1(9),2(6),4,7,10,12-hexaen-4-yl}acetamide]	0.571	6.31
C[C@@H]1C[C@H](n2c(CC(=O)Nc3cnc(C(F)(F)F)nc3)nc3cnc4ccc(C#N)cc4c32)CCO1 [Compound 321, N-[2-(trifluoromethyl)-5-pyrimidinyl]{3-[(2R,4R)-2-methyltetrahydro-2H-pyran-4-yl]-12-cyano-3,5,8-triazatricyclo[7.4.0.0^2,6]trideca-1(9),2(6),4,7,10,12-hexaen-4-yl}acetamide]	0.66	25.2
C[C@@H]1C[C@H](n2c(CC(=O)Nc3cncnc3)nc3cnc4ccc(C#N)cc4c32)CCO1 [Compound 322, N-5-pyrimidinyl{3-[(2R,4R)-2-methyltetrahydro-2H-pyran-4-yl]-12-cyano-3,5,8-triazatricyclo[7.4.0.0^2,6]trideca-1(9),2(6),4,7,10,12-hexaen-4-yl}acetamide]	1.08	32.2
C[C@@H]1C[C@H](n2c(CC(=O)NC3(C)COC3)nc3cnc4ccc(Cl)cc4c32)CCO1 [Compound 323, N-(3-methyl-3-oxetanyl){3-[(2R,4R)-2-methyltetrahydro-2H-pyran-4-yl]-12-chloro-3,5,8-triazatricyclo[7.4.0.0^2,6]trideca-1(9),2(6),4,7,10,12-hexaen-4-yl}acetamide]	2.72	76.9
C[C@@H]1C[C@H](n2c(CC(=O)Nc3cccnc3Cl)nc3cnc4ccc(C#N)cc4c32)CCO1 [Compound 324, N-(2-chloro-3-pyridyl){3-[(2R,4R)-2-methyltetrahydro-2H-pyran-4-yl]-12-cyano-3,5,8-triazatricyclo[7.4.0.0^2,6]trideca-1(9),2(6),4,7,10,12-hexaen-4-yl}acetamide]	0.536	3.16
C[C@@H]1C[C@H](n2c(CC(=O)Nc3cccnc3)nc3cnc4ccc(Cl)cc4c32)CCO1 [Compound 325, N-3-pyridyl{3-[(2R,4R)-2-methyltetrahydro-2H-pyran-4-yl]-12-chloro-3,5,8-triazatricyclo[7.4.0.0^2,6]trideca-1(9),2(6),4,7,10,12-hexaen-4-yl}acetamide]	0.44	2.54
C[C@@H]1C[C@H](n2c(CC(=O)Nc3ccncc3)nc3cnc4ccc(C#N)cc4c32)CCO1 [Compound 326, N-4-pyridyl{3-[(2R,4R)-2-methyltetrahydro-2H-pyran-4-yl]-12-cyano-3,5,8-triazatricyclo[7.4.0.0^2,6]trideca-1(9),2(6),4,7,10,12-hexaen-4-yl}acetamide]	0.492	4.86
C[C@@H]1C[C@H](n2c(CC(=O)NC3CC3)nc3cnc4ccc(C(F)(F)F)cc4c32)CCO1 [Compound 327, N-cyclopropyl{3-[(2R,4R)-2-methyltetrahydro-2H-pyran-4-yl]-12-(trifluoromethyl)-3,5,8-triazatricyclo[7.4.0.0^2,6]trideca-1,4,6,8,10,12-hexaen-4-yl}acetamide]	1.41	43.1
C[C@@H]1C[C@H](n2c(CC(=O)NC3(C)CC3)nc3cnc4ccc(C#N)cc4c32)CCO1 [Compound 328, N-1-methylcyclopropyl{3-[(2R,4R)-2-methyltetrahydro-2H-pyran-4-yl]-12-cyano-3,5,8-triazatricyclo[7.4.0.0^2,6]trideca-1(9),2(6),4,7,10,12-hexaen-4-yl}acetamide]	1.86	54.7
Cc1ncc(NC(=O)Cc2nc3cnc4ccc(C#N)cc4c3n2[C@@H]2CCO[C@H](C)C2)cn1 [Compound 329, N-(2-methyl-5-pyrimidinyl){3-[(2R,4R)-2-methyltetrahydro-2H-pyran-4-yl]-12-cyano-3,5,8-triazatricyclo[7.4.0.0^2,6]trideca-1(9),2(6),4,7,10,12-hexaen-4-yl}acetamide]	0.483	16.5
C[C@@H]1C[C@H](n2c(CC(=O)Nc3ccccc3)nc3cnc4ccc(C#N)cc4c32)CCO1 [Compound 330, N-phenyl{3-[(2R,4R)-2-methyltetrahydro-2H-pyran-4-yl]-12-cyano-3,5,8-triazatricyclo[7.4.0.0^2,6]trideca-1(9),2(6),4,7,10,12-hexaen-4-yl}acetamide]	0.507	4.68
C[C@@H]1C[C@H](n2c(CC(=O)Nc3cncnc3)nc3cnc4ccc(Cl)cc4c32)CCO1 [Compound 331, N-5-pyrimidinyl{3-[(2R,4R)-2-methyltetrahydro-2H-pyran-4-yl]-12-chloro-3,5,8-triazatricyclo[7.4.0.0^2,6]trideca-1(9),2(6),4,7,10,12-hexaen-4-yl}acetamide]	0.608	5.73
C[C@@H]1C[C@H](n2c(CC(=O)NC3CCC3)nc3cnc4ccc(Cl)cc4c32)CCO1 [Compound 332, N-cyclobutyl{3-[(2R,4R)-2-methyltetrahydro-2H-pyran-4-yl]-12-chloro-3,5,8-triazatricyclo[7.4.0.0^2,6]trideca-1(9),2(6),4,7,10,12-hexaen-4-yl}acetamide]	0.741	10.9
C[C@@H]1C[C@H](n2c(CC(=O)NC3(C)CCOC3)nc3cnc4ccc(Cl)cc4c32)CCO1 (stereo partly drawn) [Compound 333, N-(3-methyltetrahydro-3-furyl){3-[(2R,4R)-2-methyltetrahydro-2H-pyran-4-yl]-12-chloro-3,5,8-triazatricyclo[7.4.0.0^2,6]trideca-1(9),2(6),4,7,10,12-hexaen-4-yl}acetamide]	1.27	30.7
C[C@@H]1C[C@H](n2c(C(F)(F)C(=O)NCC3CC3)nc3cnc4ccc(C#N)cc4c32)CCO1 [Compound 334]	1.34	26.5
C[C@@H]1C[C@H](n2c(CC(=O)Nc3nccs3)nc3cnc4ccc(C#N)cc4c32)CCO1 [Compound 335, N-(1,3-thiazol-2-yl){3-[(2R,4R)-2-methyltetrahydro-2H-pyran-4-yl]-12-cyano-3,5,8-triazatricyclo[7.4.0.0^2,6]trideca-1(9),2(6),4,7,10,12-hexaen-4-yl}acetamide]	0.433	4.06
C[C@@H]1C[C@H](n2c(CC(=O)NC3CCCC3)nc3cnc4ccc(C#N)cc4c32)CCO1 [Compound 336, N-cyclopentyl{3-[(2R,4R)-2-methyltetrahydro-2H-pyran-4-yl]-12-cyano-3,5,8-triazatricyclo[7.4.0.0^2,6]trideca-1(9),2(6),4,7,10,12-hexaen-4-yl}acetamide]	0.732	10.2
C[C@@H]1C[C@H](n2c(CC(=O)Nc3cnccn3)nc3cnc4ccc(C#N)cc4c32)CCO1 [Compound 337, N-2-pyrazinyl{3-[(2R,4R)-2-methyltetrahydro-2H-pyran-4-yl]-12-cyano-3,5,8-triazatricyclo[7.4.0.0^2,6]trideca-1,4,6,8,10,12-hexaen-4-yl}acetamide]	0.337	1.61
C[C@@H]1C[C@H](n2c(CC(=O)Nc3nccc(C4CC4)n3)nc3cnc4ccc(C#N)cc4c32)CCO1 [Compound 338, N-(4-cyclopropyl-2-pyrimidinyl){3-[(2R,4R)-2-methyltetrahydro-2H-pyran-4-yl]-12-cyano-3,5,8-triazatricyclo[7.4.0.0^2,6]trideca-1(9),2(6),4,7,10,12-hexaen-4-yl}acetamide]	0.364	1.87
C[C@@H]1C[C@H](n2c(CC(=O)Nc3cc(C(F)(F)F)on3)nc3cnc4ccc(C#N)cc4c32)CCO1 [Compound 339, N-[5-(trifluoromethyl)-3-isoxazolyl]{3-[(2R,4R)-2-methyltetrahydro-2H-pyran-4-yl]-12-cyano-3,5,8-triazatricyclo[7.4.0.0^2,6]trideca-1(9),2(6),4,7,10,12-hexaen-4-yl}acetamide]	1.13	11.6
C[C@@H]1C[C@H](n2c(CC(=O)Nc3cc(C4CCC4)no3)nc3cnc4ccc(C#N)cc4c32)CCO1 [Compound 340, N-(3-cyclobutyl-5-isoxazolyl){3-[(2R,4R)-2-methyltetrahydro-2H-pyran-4-yl]-12-cyano-3,5,8-triazatricyclo[7.4.0.0^2,6]trideca-1(9),2(6),4,7,10,12-hexaen-4-yl}acetamide]	1.53	15.7
C[C@@H]1C[C@H](n2c(CC(=O)Nc3cc(C(C)(C)F)no3)nc3cnc4ccc(C#N)cc4c32)CCO1 [Compound 341, N-[3-(1-fluoro-1-methylethyl)-5-isoxazolyl]{3-[(2R,4R)-2-methyltetrahydro-2H-pyran-4-yl]-12-cyano-3,5,8-triazatricyclo[7.4.0.0^2,6]trideca-1(9),2(6),4,7,10,12-hexaen-4-yl}acetamide]	0.423	8.13
C[C@@H]1C[C@H](n2c(CC(=O)Nc3cc(C(F)(F)F)no3)nc3cnc4ccc(C#N)cc4c32)CCO1 [Compound 342, N-[3-(trifluoromethyl)-5-isoxazolyl]{3-[(2R,4R)-2-methyltetrahydro-2H-pyran-4-yl]-12-cyano-3,5,8-triazatricyclo[7.4.0.0^2,6]trideca-1(9),2(6),4,7,10,12-hexaen-4-yl}acetamide]	2.17	75.1
